According to the NIST ThermoML archive (doi:10.1016/j.jct.2016.05.008):
± gives the expanded uncertainty stated by the source.

Assays:
[1] = Molar enthalpy of transition or fusion; settings: Crystal; DSC
[2] = Crystal; DTA

| Compound | Molar enthalpy of transition or fusion [1] [kcal/mol] | Normal melting temperature [2] [°C] |
| --- | --- | --- |
| CCCCCCCCCCCCCCCCCC [octadecane] | 14.7 ± 0.645 | 27.80 ± 0.53 |
| CCCCCCCCCCCCCCCC(=O)O [hexadecanoic acid] | 12.6 ± 0.55 | 62.00 ± 0.53 |
| CCCCCCCCCCCCCC(=O)O [tetradecanoic acid] | 10.7 ± 0.478 | 54.00 ± 0.53 |
